Reference: patent US5980913A, “Peptides having immunomodulatory activity” (Biochem Pharma, Inc., priority 1994, dated 1999)
Where a SMILES comes first, the peptide text is derived from it.

Columns and labels:
Toxicity in vivo = details: animals treated with 50, 100, 200, and 300 mg/kg
Excerpt: peptide #1 (SEQ. ID NO:1) appears to be non-toxic.

B cells = experiment: Activation of B cells by mitogenic proliferation (LPS, PWM); type: cell-based, C57BL/6 mice
Excerpt: c) Activation of T or B cells by Mitogenic Proliferation
A mitogenic lectin (mitogen) is a glycoprotein which binds and cross-links specific cells surface carbohydrate determinants, and will polyclonally stimulate lymphoid cells. Lymphocyte activation by either antigens or mitogens results in intracellular changes and the subsequent development into a lymphoblast. Mitogenic stimulation of lymphocytes in vitro is believed to mimic the series of events which occur in vivo following their stimulation by specific antigens. PHA and ConA; PWM and LPS mitogens can be used as a measurement of T cell and B cell activity, respectively. Briefly, the spleen mononuclear leukocytes from C57BL/6 mice are incubated in the presence or absence of mitogens with or without candidate drugs. After 72 hours or 5 days, ^3 H-thymidine incorporation is recorded as an indication of cell proliferation.
Lymphocytes were isolated from mice spleen or human blood in accordance to methods well known in the art. 100 μl of cell suspension of 2×10^6 cells/ml was added per well (2x10^5 cells/well) and incubated in the presence of lectin at the following concentrations:
PWM=0.2 to 0.02% final concentration
Cells were incubated for 3 days with PHA or ConA, or 5 days with PWM or LPS. 1 μCi of tritiated thymidine was added to each well for the last 6 hours (or 0.5 μCi for 18 hrs). The cells were harvested in a cell Harvester (Tortech®) and counted in a Beta counter.

[1] = test system: blood cell subsets (cell surface antigens); experiment: In vivo/ex vivo immunophenotyping in the blood, mice treated 4 consecutive days, blood taken on day 5; set-up: species or system C57BL/6 mice
Procedure: C57BL.backslash.6 mice are treated with 0, 50, 100, 200, and 300 mg/kg of drug (in saline) for 4 consecutive days. Blood is taken by cardiac puncture on day 5, and the lymphocytes are isolated from spleen in the following manner:
1. Immunophenotyping (blood and spleen)
Cell immunophenotyping is performed on blood and spleen. The following cell surface antigens are analyzed:
CD4 (T helper/inducer, binds class II-restricted T cells);
CD8 (cytotoxic T cells, CTL adhesion);
MAC-1 (monocyte/macrophage);
NK (natural killer cells);
CD45 (all leukocytes, protein tyrosine phosphatase).

[2] = Stability in Human Whole Blood at 37° C., HPLC; type: in vitro ADME; set-up: half-life: dose or concentration left out as unconfirmed; details: for HPLC AREA: human whole blood 37° C.
Procedure: The procedures are the same as example 5 with the exceptions that human whole blood was substituted for rat whole blood, and that in Step 2, (blood incubation) aliquotes were taken at the following times: […]

SMILES: NCCCC[C@H](N)C(=O)N[C@@H](CC(N)=O)C(=O)N1CCC[C@H]1C(=O)N[C@@H](Cc1ccc(O)cc1)C(=O)O [PEPTIDE #1, H-Lys-Asn-Pro-Tyr-OH] (H-KNPY-OH)
- toxicity in vivo (in words) (Toxicity in vivo): No apparent toxicity
- Activation of B Cells, PWM (B cells; 10^-6 - 10^-4 M): 1.7 - 4 ×
- Activation of B Cells, LPS (B cells; 10^-10 - 10^-4 M): 1.9 - 3.6 ×
- stimulation of B cells in vitro (in words) (B cells; summary of Table 1): stimulates CTL's and B cells
- B cell subset, relative percentage ([1]; 50 mg/kg): 23.57
- CD4+ CD8+ cell subset, relative percentage ([1]; 50 mg/kg): 3.65
- CD4+ CD8- cell subset, relative percentage ([1]; 50 mg/kg): 27.15
- CD4+ CD11+ cell subset, relative percentage ([1]; 50 mg/kg): 0.53
- CD4+ CD11- cell subset, relative percentage ([1]; 50 mg/kg): 34.10
- CD4+ CD45+ cell subset, relative percentage ([1]; 50 mg/kg): 26.95
- CD4+ CD45- cell subset, relative percentage ([1]; 50 mg/kg): 3.80
- CD4- CD8+ cell subset, relative percentage ([1]; 50 mg/kg): 11.20
- CD4- CD8- cell subset, relative percentage ([1]; 50 mg/kg): 58.05
- CD4- CD11+ cell subset, relative percentage ([1]; 50 mg/kg): 7.67
- CD4- CD11- cell subset, relative percentage ([1]; 50 mg/kg): 57/73
- CD4- CD45+ cell subset, relative percentage ([1]; 50 mg/kg): 65.30
- CD4- CD45- cell subset, relative percentage ([1]; 50 mg/kg): 3.90
- CD8+ CD45+ cell subset, relative percentage ([1]; 50 mg/kg): 13.70
- CD8+ CD45- cell subset, relative percentage ([1]; 50 mg/kg): 0.55
- CD8- CD45+ cell subset, relative percentage ([1]; 50 mg/kg): 76.15
- CD8- CD45- cell subset, relative percentage ([1]; 50 mg/kg): 9.60
- NK+ CD3+ cell subset, relative percentage ([1]; 50 mg/kg): 7.83
- NK+ CD3- cell subset, relative percentage ([1]; 50 mg/kg): 10.47
- NK- CD3+ cell subset, relative percentage ([1]; 50 mg/kg): 41.23
- NK- CD3- cell subset, relative percentage ([1]; 50 mg/kg): 40.53
- Non B cell subset, relative percentage ([1]; 50 mg/kg): 76.40
- B cell subset, relative percentage ([1]; 100 mg/kg): 19.23
- CD4+ CD8+ cell subset, relative percentage ([1]; 100 mg/kg): 27.20
- CD4+ CD8- cell subset, relative percentage ([1]; 100 mg/kg): 28.55
- CD4+ CD11+ cell subset, relative percentage ([1]; 100 mg/kg): 0.23
- CD4+ CD11- cell subset, relative percentage ([1]; 100 mg/kg): 41.67
- CD4+ CD45+ cell subset, relative percentage ([1]; 100 mg/kg): 46.75
- CD4+ CD45- cell subset, relative percentage ([1]; 100 mg/kg): 8.90
- CD4- CD8+ cell subset, relative percentage ([1]; 100 mg/kg): 11.50
- CD4- CD8- cell subset, relative percentage ([1]; 100 mg/kg): 32.85
- CD4- CD11+ cell subset, relative percentage ([1]; 100 mg/kg): 3.00
- CD4- CD11- cell subset, relative percentage ([1]; 100 mg/kg): 55.13
- CD4- CD45+ cell subset, relative percentage ([1]; 100 mg/kg): 37.30
- CD4- CD45- cell subset, relative percentage ([1]; 100 mg/kg): 7.00
- CD8+ CD45+ cell subset, relative percentage ([1]; 100 mg/kg): 31.95
- CD8+ CD45- cell subset, relative percentage ([1]; 100 mg/kg): 6.20
- CD8- CD45+ cell subset, relative percentage ([1]; 100 mg/kg): 47.55
- CD8- CD45- cell subset, relative percentage ([1]; 100 mg/kg): 14.35
- NK+ CD3+ cell subset, relative percentage ([1]; 100 mg/kg): 2.80
- NK+ CD3- cell subset, relative percentage ([1]; 100 mg/kg): 6.50
- NK- CD3+ cell subset, relative percentage ([1]; 100 mg/kg): 37.57
- NK- CD3- cell subset, relative percentage ([1]; 100 mg/kg): 53.13
- Non B cell subset, relative percentage ([1]; 100 mg/kg): 80.77
- B cell subset, relative percentage ([1]; 200 mg/kg): 20.10
- CD4+ CD8+ cell subset, relative percentage ([1]; 200 mg/kg): 16.11
- CD4+ CD8- cell subset, relative percentage ([1]; 200 mg/kg): 24.11
- CD4+ CD11+ cell subset, relative percentage ([1]; 200 mg/kg): 0.50
- CD4+ CD11- cell subset, relative percentage ([1]; 200 mg/kg): 39.73
- CD4+ CD45+ cell subset, relative percentage ([1]; 200 mg/kg): 33.01
- CD4+ CD45- cell subset, relative percentage ([1]; 200 mg/kg): 6.22
- CD4- CD8+ cell subset, relative percentage ([1]; 200 mg/kg): 8.57
- CD4- CD8- cell subset, relative percentage ([1]; 200 mg/kg): 37.41
- CD4- CD11+ cell subset, relative percentage ([1]; 200 mg/kg): 5.50
- CD4- CD11- cell subset, relative percentage ([1]; 200 mg/kg): 54.30
- CD4- CD45+ cell subset, relative percentage ([1]; 200 mg/kg): 40.63
- CD4- CD45- cell subset, relative percentage ([1]; 200 mg/kg): 6.74
- CD8+ CD45+ cell subset, relative percentage ([1]; 200 mg/kg): 20.68
- CD8+ CD45- cell subset, relative percentage ([1]; 200 mg/kg): 4.13
- CD8- CD45+ cell subset, relative percentage ([1]; 200 mg/kg): 49.80
- CD8- CD45- cell subset, relative percentage ([1]; 200 mg/kg): 10.39
- NK+ CD3+ cell subset, relative percentage ([1]; 200 mg/kg): 4.57
- NK+ CD3- cell subset, relative percentage ([1]; 200 mg/kg): 8.70
- NK- CD3+ cell subset, relative percentage ([1]; 200 mg/kg): 31.73
- NK- CD3- cell subset, relative percentage ([1]; 200 mg/kg): 55.07
- Non B cell subset, relative percentage ([1]; 200 mg/kg): 79.90
- B cell subset, relative percentage ([1]; 300 mg/kg): 33.67
- CD4+ CD8+ cell subset, relative percentage ([1]; 300 mg/kg): 2.37
- CD4+ CD8- cell subset, relative percentage ([1]; 300 mg/kg): 31.07
- CD4+ CD11+ cell subset, relative percentage ([1]; 300 mg/kg): 0.37
- CD4+ CD11- cell subset, relative percentage ([1]; 300 mg/kg): 29.53
- CD4+ CD45+ cell subset, relative percentage ([1]; 300 mg/kg): 30.67
- CD4+ CD45- cell subset, relative percentage ([1]; 300 mg/kg): 2.77
- CD4- CD8+ cell subset, relative percentage ([1]; 300 mg/kg): 16.67
- CD4- CD8- cell subset, relative percentage ([1]; 300 mg/kg): 49.90
- CD4- CD11+ cell subset, relative percentage ([1]; 300 mg/kg): 5.07
- CD4- CD11- cell subset, relative percentage ([1]; 300 mg/kg): 65.03
- CD4- CD45+ cell subset, relative percentage ([1]; 300 mg/kg): 62.10
- CD4- CD45- cell subset, relative percentage ([1]; 300 mg/kg): 4.47
- CD8+ CD45+ cell subset, relative percentage ([1]; 300 mg/kg): 18.10
- CD8- CD45+ cell subset, relative percentage ([1]; 300 mg/kg): 73.03
- CD8- CD45- cell subset, relative percentage ([1]; 300 mg/kg): 8.83
- NK+ CD3+ cell subset, relative percentage ([1]; 300 mg/kg): 9.97
- NK+ CD3- cell subset, relative percentage ([1]; 300 mg/kg): 11.87
- NK- CD3+ cell subset, relative percentage ([1]; 300 mg/kg): 42.43
- NK- CD3- cell subset, relative percentage ([1]; 300 mg/kg): 35.77
- Non B cell subset, relative percentage ([1]; 300 mg/kg): 66.30
- change of the relative percentage of B cell (in words) ([1]; 300 mg/kg): significant increase
- HPLC AREA ([2]; 0 min): 887657
- HPLC AREA ([2]; 15 min): 354842
- HPLC AREA ([2]; 30 min): 127725
- HPLC AREA ([2]; 45 min): 0
- half-life ([2]; human, human whole blood, 37° C.): ~20 min
